Results reported in US20240239772A1, “PROTEASE INHIBITORS AND METHODS OF USE” (The Cleveland Clinic Foundation, priority 2021, published 2024).

target: SARS-CoV-2 3CLpro (Severe acute respiratory syndrome coronavirus 2 (2019-nCoV) (SARS-CoV-2), UniProt P0DTD1); test: biochemical; format: biochemical; conditions: read-out: SARS-CoV-2 IC50

Structure (SMILES) | IC50 [µM]
O=C(Cn1nnc2ccccc21)N(CC1COC1)c1ccc(-c2cccnc2)cc1 [Compound 70, 2-(1H-benzo[d][1,2,3]triazol-1-yl)-N-(oxetan-3-ylmethyl)-N-(4-(pyridin-3-yl)phenyl)acetamide] | 32
O=C(Cn1nnc2ccccc21)N(Cc1cc(F)cc(F)c1)c1ccc(C2CCNCC2)cc1 [Compound 90, 2-(benzotriazol-1-yl)-N-[(3,5-difluorophenyl)methyl]-N-[4-(4-piperidyl)phenyl]acetamide] | 1.7
Cc1nc(-c2ccc(N(Cc3cc(F)cc(F)c3)C(=O)Cn3nnc4ccccc43)cc2)c[nH]1 [Compound 104, 2-(benzotriazol-1-yl)-N-[(3,5-difluorophenyl)methyl]-N-[4-(2-methyl-1H-imidazol-4-yl)phenyl]acetamide] | 0.17
O=C(Cn1nnc2ccccc21)N(Cc1cc(F)cc(F)c1)c1ccc(-c2ncc[nH]2)cc1 [Compound 100, 2-(benzotriazol-1-yl)-N-[(3,5-difluorophenyl)methyl]-N-[4-(1H-imidazol-2-yl)phenyl]acetamide] | 0.34
O=C(Cn1nnc2ccccc21)N(Cc1ccc(Cl)c(F)c1)c1ccc(-c2c[nH]cn2)cc1 [Compound 116, 2-(benzotriazol-1-yl)-N-[(4-chloro-3-fluoro-phenyl)methyl]-N-[4-(1H-imidazol-4-yl)phenyl]acetamide] | 2.5
CC(=O)NCc1ccc(N(Cc2cc(F)cc(F)c2)C(=O)Cn2nnc3ccccc32)cc1 [Compound 123, N-[4-(acetamidomethyl)phenyl]-2-(benzotriazol-1-yl)-N-[(3,5-difluorophenyl)methyl]acetamide] | 0.78
O=C(Cn1nnc2ccccc21)N(Cc1cc(F)cc(Cl)c1)c1ccc(-c2c[nH]cn2)cn1 [Compound 75, 2-(benzotriazol-1-yl)-N-[(3-chloro-5-fluoro-phenyl)methyl]-N-[5-(1H-imidazol-4-yl)-2-pyridyl]acetamide] | 0.062
O=C(Cn1nnc2ccccc21)N(Cc1cc(F)cc(F)c1)c1ccc(C2CNC2)cc1 [Compound 118, N-[4-(azetidin-3-yl)phenyl]-2-(benzotriazol-1-yl)-N-[(3,5-difluorophenyl)methyl]acetamide] | 0.078
O=C(Cn1ccnn1)N(Cc1cc(F)cc(Cl)c1)c1ccc(-c2c[nH]cn2)cc1 [Compound 112, N-[(3-chloro-5-fluoro-phenyl)methyl]-N-[4-(1H-imidazol-4-yl)phenyl]-2-(triazol-1-yl)acetamide] | 0.41
Cc1[nH]ncc1-c1ccc(N(Cc2cccc(Cl)c2)C(=O)Cn2nnc3ccccc32)cc1 [Compound 69, 2-(1H-benzo[d][1,2,3]triazol-1-yl)-N-(3-chlorobenzyl)-N-(4-(5-methyl-1H-pyrazol-4-yl)phenyl)acetamide] | 0.38
O=C1C=C(c2ccc(N(Cc3cc(F)cc(F)c3)C(=O)Cn3nnc4ccccc43)cc2)CN1 [Compound 109, 2-(benzotriazol-1-yl)-N-[(3,5-difluorophenyl)methyl]-N-[4-(5-oxo-1,2-dihydropyrrol-3-yl)phenyl]acetamide] | 0.34
O=C(Cn1nnc2ccccc21)N(CC1CCC1)c1ccc(-c2c[nH]cn2)cc1 [Compound 79, 2-(benzotriazol-1-yl)-N-(cyclobutylmethyl)-N-[4-(1H-imidazol-4-yl)phenyl]acetamide] | 1.1
O=C(Cn1nnc2ccccc21)N(Cc1cccc(C(F)(F)F)c1)c1ccc(-c2c[nH]cn2)cc1 [Compound 76, 2-(benzotriazol-1-yl)-N-[4-(1H-imidazol-4-yl)phenyl]-N-[[3-(trifluoromethyl)phenyl]methyl]acetamide] | 0.27
COc1cc(F)cc(CN(C(=O)Cn2nnc3ccccc32)c2ccc(-c3c[nH]cn3)cc2)c1 [Compound 111, 2-(benzotriazol-1-yl)-N-[(3-fluoro-5-methoxy-phenyl)methyl]-N-[4-(1H-imidazol-4-yl)phenyl]acetamide] | 0.069
CC(C)CN(C(=O)Cn1nnc2ccccc21)c1ccc(-c2c[nH]cn2)cc1 [Compound 89, 2-(benzotriazol-1-yl)-N-[4-(1H-imidazol-4-yl)phenyl]-N-isobutyl-acetamide] | 0.68
O=C(Cn1ccnn1)N(Cc1cccc(Cl)c1)c1ccc(-c2cn[nH]c2)cc1 [Compound 113, N-[(3-chlorophenyl)methyl]-N-[4-(1H-pyrazol-4-yl)phenyl]-2-(triazol-1-yl)acetamide] | 8.2
O=C(Cn1nnc2ccccc21)N(CC1CCC1)c1ccc(-c2cccnc2)cc1 [Compound 24, 2-(1H-Benzo[d][1,2,3]triazol-1-yl)-N-(cyclobutylmethyl)-N-(4-(pyridin-3-yl)phenyl)acetamide] | 0.83 ± 0.03
O=C(Cn1nnc2ccccc21)N(Cc1cncc(C(F)(F)F)c1)c1ccc(-c2c[nH]cn2)cc1 [Compound 96, 2-(benzotriazol-1-yl)-N-[4-(1H-imidazol-4-yl)phenyl]-N-[[5-(trifluoromethyl)-3-pyridyl]methyl]acetamide] | 0.35
NCc1ccc(N(Cc2cc(F)cc(F)c2)C(=O)Cn2nnc3ccccc32)cc1 [Compound 124, N-[4-(aminomethyl)phenyl]-2-(benzotriazol-1-yl)-N-[(3,5-difluorophenyl)methyl]acetamide] | 0.059

Structure (SMILES) | IC50 [µM]
COc1ccc(Cl)cc1CN(C(=O)Cn1nnc2ccccc21)c1ccc(-c2c[nH]cn2)cc1 [Compound 86, 2-(benzotriazol-1-yl)-N-[(5-chloro-2-methoxy-phenyl)methyl]-N-[4-(1H-imidazol-4-yl)phenyl]acetamide] | 0.18
O=C(Cn1nnc2ccccc21)N(Cc1cccc(Cl)c1F)c1ccc(-c2c[nH]cn2)cc1 [Compound 84, 2-(benzotriazol-1-yl)-N-[(3-chloro-2-fluoro-phenyl)methyl]-N-[4-(1H-imidazol-4-yl)phenyl]acetamide] | 0.23
O=C1CC(c2ccc(N(Cc3cc(F)cc(F)c3)C(=O)Cn3nnc4ccccc43)cc2)CN1 (stereo not shown) [Compound 115, 2-(benzotriazol-1-yl)-N-[(3,5-difluorophenyl)methyl]-N-[4-(5-oxopyrrolidin-3-yl)phenyl]acetamide] | 0.24
O=C(Cn1nnc2ccccc21)N(Cc1cccc(F)c1F)c1ccc(-c2c[nH]cn2)cc1 [Compound 81, 2-(benzotriazol-1-yl)-N-[(2,3-difluorophenyl)methyl]-N-[4-(1H-imidazol-4-yl)phenyl]acetamide] | 0.4
O=C(Cn1nnc2ccccc21)N(Cc1cc(F)cc(Cl)c1)c1ccc(-c2c[nH]cn2)cc1 [Compound 72, 2-(benzotriazol-1-yl)-N-[(3-chloro-5-fluoro-phenyl)methyl]-N-[4-(1H-imidazol-4-yl)phenyl]acetamide] | 0.052
Cn1cc(-c2ccc(N(Cc3ccsc3)C(=O)Cn3nnc4ccccc43)cc2)cn1 [Compound 18, 2-(Benzotriazol-1-yl)-N-[4-(1-methylpyrazol-4-yl)phenyl]-N-(3-thienylmethyl)acetamide] | 20.4 ± 0.42
NCCc1ccc(N(Cc2cc(F)cc(F)c2)C(=O)Cn2nnc3ccccc32)cc1 [Compound 107, N-[4-(2-aminoethyl)phenyl]-2-(benzotriazol-1-yl)-N-[(3,5-difluorophenyl)methyl]acetamide] | 0.43
N#Cc1cccc(CN(C(=O)Cn2nnc3ccccc32)c2ccc(-c3c[nH]cn3)cc2)c1 [Compound 77, 2-(benzotriazol-1-yl)-N-[(3-cyanophenyl)methyl]-N-[4-(1H-imidazol-4-yl)phenyl]acetamide] | 0.64
O=C(Cn1nnc2ccccc21)N(Cc1cc(F)cc(F)c1)c1ccc(-c2c[nH]nn2)cc1 [Compound 105, 2-(benzotriazol-1-yl)-N-[(3,5-difluorophenyl)methyl]-N-[4-(1H-triazol-4-yl)phenyl]acetamide] | 0.18
O=C(Cn1nnc2ccccc21)N(Cc1cc(F)cc(OC(F)(F)F)c1)c1ccc(-c2c[nH]cn2)cc1 [Compound 120, 2-(benzotriazol-1-yl)-N-[[3-fluoro-5-(trifluoromethoxy)phenyl]methyl]-N-[4-(1H-imidazol-4-yl)phenyl]acetamide] | 0.12
O=C(Cn1nnc2ccccc21)N(Cc1cncc(F)c1)c1ccc(-c2c[nH]cn2)cc1 [Compound 97, 2-(benzotriazol-1-yl)-N-[(5-fluoro-3-pyridyl)methyl]-N-[4-(1H-imidazol-4-yl)phenyl]acetamide] | 0.13
CC(C)(C)CN(C(=O)Cn1nnc2ccccc21)c1ccc(-c2c[nH]cn2)cc1 [Compound 114, 2-(benzotriazol-1-yl)-N-(2,2-dimethylpropyl)-N-[4-(1H-imidazol-4-yl)phenyl]acetamide] | 1.6
O=C(Cn1nnc2ccccc21)N(Cc1cc(F)cc(Cl)c1)c1ccc(C2CNC2)cc1 [Compound 121, N-[4-(azetidin-3-yl)phenyl]-2-(benzotriazol-1-yl)-N-[(3-chloro-5-fluoro-phenyl)methyl]acetamide] | 0.1
CC(c1cc(F)cc(F)c1)N(C(=O)Cn1nnc2ccccc21)c1ccc(-c2c[nH]cn2)cc1 (stereo not shown) [Compound 88, 2-(benzotriazol-1-yl)-N-[1-(3,5-difluorophenyl)ethyl]-N-[4-(1H-imidazol-4-yl)phenyl]acetamide] | 0.16
O=C(Cn1nnc2ccccc21)N(Cc1cc(F)cc(F)c1)c1ccc(-c2c[nH]cn2)cc1 [Compound 78, 2-(benzotriazol-1-yl)-N-[(3,5-difluorophenyl)methyl]-N-[4-(1H-imidazol-4-yl)phenyl]acetamide] | 0.095
O=C(Cn1nnc2ccccc21)N(Cc1ccnc(C(F)(F)F)c1)c1ccc(-c2c[nH]cn2)cc1 [Compound 95, 2-(benzotriazol-1-yl)-N-[4-(1H-imidazol-4-yl)phenyl]-N-[[2-(trifluoromethyl)-4-pyridyl]methyl]acetamide] | 2.9
Cn1cnc(-c2ccc(N(Cc3ccsc3)C(=O)Cn3nnc4ccccc43)cc2)c1 [Compound 20, 2-(Benzotriazol-1-yl)-N-[4-(1-methylimidazol-4-yl)phenyl]-N-(3-thienylmethyl)acetamide] | 9.55 ± 0.99
O=C(Cn1nnc2ccccc21)N(Cc1cncc(Cl)c1)c1ccc(-c2c[nH]cn2)cc1 [Compound 85, 2-(benzotriazol-1-yl)-N-[(5-chloro-3-pyridyl)methyl]-N-[4-(1H-imidazol-4-yl)phenyl]acetamide] | 0.089
